The values that follow come from US6191124A, “Methanol derivatives for treatment of retroviral infections especially HIV infections” (priority 1997, dated 2001).

For the assay, the target named is HIV-1 protease (Human immunodeficiency virus type 1 group M subtype B, UniProt P04585). The assay can be described thus: HIV protease screening assay (fluorescently labeled biotinylated substrate, streptavidin beads), percent inhibition. The assay is classed as biochemical. The method, then: The HIV protease screening assay is based on fluorescently labeled substrate which can be resolved from nonlabeled cleavage product using special beads coated with streptavidin. The substrate is biotinylated at the amino terminal arginine and fluorescently labeled with fluorescein isothiocynate (FITC) at the carboxyl terminal lysine. This assay has been employed to detect novel, nonpeptidic inhibitors of HIV-1 protease. Substrate (20 μl of 0.2 μM), sample (10 μl of desired concentration), and enzyme (10 μl of 0.1 μM) are added to a 96 well pandex plate. The assay is run in 0.1 M sodium acetate buffer at pH 5.5 in the presence of 1.0 M sodium chloride and 0.05% NP-40 with incubated in the dark for one hour at room temperature. Strepavidin coated polystyrene beads {40 μl of 0.1% (w/v)} are added and the plate is incubated in the dark for an additional half hour. The labeled cleavage product is separated from the unreacted substrate via filtration and is read on the Idexx screen machine. The data are analyzed by appropriate computer algorithms to ascertain percent inhibition values.

Where [1] appears, read: 10 μM (Table 1), read-out: % Protease Inhibition.
The mark [2] stands for this setting: 10 μM (Table 3), read-out: % Protease Inhibition.
Where [3] appears, read: 10 μM (Table 2), read-out: % Protease Inhibition.
Setting [4] is: 3.3 μM (Table 5), read-out: % HIV Protease Inhibition.
[5] abbreviates: 10 μM (Table 5), read-out: % HIV Protease Inhibition.
Where [6] appears, read: 1.1 μM (Table 7), read-out: PROTEASE INHIBITION
Where [7] appears, read: 3.3 μM (Table 7), read-out: PROTEASE INHIBITION
Setting [8] is: 10 μM (Table 7), read-out: PROTEASE INHIBITION
Where [9] appears, read: 1.1 μM (Table 6), read-out: PROTEASE INHIBITION
[10] abbreviates: 3.3 μM (Table 6), read-out: PROTEASE INHIBITION
The mark [11] stands for this setting: 1.1 μM (Table 8), read-out: PROTEASE INHIBITION
Setting [12] is: 3.3 μM (Table 8), read-out: PROTEASE INHIBITION
Where [13] appears, read: 10 μM (Table 8), read-out: PROTEASE INHIBITION

SMILES strings stand for the structures. Where two headings read alike, the source gives them in different places.

Turning to `Cc1sc2ncc(C(O)C#Cc3ccccc3)n2c1C` (stereo not drawn) [Example 1, 2,3-Dimethyl-α-(2-phenylethynyl)imidazo-[2,1-b]thiazole-5-methanol], the inhibition at 10 µM under setting [1] came out at 16%. The “% Protease Inhibition” value (3.3-3.7 μM (Table 1)) was below 10%.

With `Cc1sc2ncc(C(O)Cc3ccccc3)n2c1C` (stereo not drawn) [Example 2, 2,3-Dimethyl-α-(2-phenylmethyl)imidazo-[2,1-b]thiazole-5-methanol], under setting [1], the inhibition at 10 µM was 86%. Besides, the “% Protease Inhibition” value runs as follows: (1.1-1.3 μM (Table 1)) below 10%; (3.3-3.7 μM (Table 1)) 27%.

As to `Cc1csc2ncc(C(C)(O)/C=C/c3ccccc3)n12` (stereo not drawn) [Example 5, α,3-Dimethyl-α-(E-2-phenyl-E-ethenyl)imidazo[2,1-b]thiazole-5-methanol], the inhibition at 10 µM under setting [2] is below 10%. For the setting “30 μM (Table 3 footnote)”, this molecule had an inhibition at 30 µM of 48.9%. Further, the “% Protease Inhibition” value reads like this: (1-1.2 μM (Table 3)) below 10%; (3.3-3.7 μM (Table 3)) below 10%.

As for `Cc1csc2ncc(C(O)CC(C)c3ccccc3)n12` (stereo not drawn) [Example 6, 3-Methyl-α-(2-phenylpropyl)imidazo[2,1-b]thiazole-5-methanol], the inhibition at 10 µM under setting [3] was 51%. For the same molecule, the “% Protease Inhibition” value reads like this: (1.1-1.3 μM (Table 2)) below 10%; (3.3-3.7 μM (Table 2)) below 10%.

As to `Cc1csc2ncc(C(C)(O)CCc3ccccc3)n12` (stereo not drawn) [Example 7, α,3-Dimethyl-α-(2-phenylethyl)imidazo[2,1-b]thiazole-5-methanol], under setting [2], the inhibition at 10 µM came out at 14.5%. Further, the “% Protease Inhibition” value is below 10% (1-1.2 μM (Table 3)) and below 10% (3.3-3.7 μM (Table 3)).

In the case of `Cc1csc2ncc(C(O)CCc3ccccc3)n12` (stereo not drawn) [Example 8, 3-Methyl-α-(2-phenylethyl)imidazo[2,1-b]thiazole-5-methanol], the inhibition at 10 µM under setting [3] came to 79%. Further, the “% Protease Inhibition” value is reported as below 10% (1.1-1.3 μM (Table 2)) and 32% (3.3-3.7 μM (Table 2)).

As to `Cc1csc2ncc(C(O)CCc3ccc(Br)cc3)n12` (stereo not drawn) [Example 9, 3-Methyl-α-(4-bromophenylethyl)imidazo[2,1-b]thiazole-5-methanol], the inhibition at 10 µM under setting [3] came to 83%. Also, the “% Protease Inhibition” value reads like this: (1.1-1.3 μM (Table 2)) below 10%; (3.3-3.7 μM (Table 2)) 22%.

Consider `Cc1csc2ncc(C(O)CCCCc3ccccc3)n12` (stereo not drawn) [Example 10, 3-Methyl-α-(4-phenylbutyl)imidazo-[2,1-b]thiazole-5-methanol], for which the inhibition at 10 µM under setting [3] amounted to 58%. Further, the “% Protease Inhibition” value (1.1-1.3 μM (Table 2)) was below 10% and the “% Protease Inhibition” value (3.3-3.7 μM (Table 2)) is on record as 12%.

Consider `OC(CCc1ccccc1)c1cnc2sc3c(n12)CCC3` (stereo not drawn) [Example 13, 6,7-Dihydro-α-(2-phenylethyl)-5H-cyclopent[d]imidazo[2,1-b]thiazole-3-methanol], for which the inhibition at 1.1 µM (1.1 μM (Table 4), read-out: Protease Inhibition, % Inhibition) amounted to 39%.

For the molecule `OC(CCc1ccccc1)c1cnc2sc3ccccc3n12` (stereo not drawn) [Example 18, α-(2-phenylethyl)-imidazo[2,1-b]benzothiazole-3-methanol], under setting [4], the inhibition at 3.3 µM turned out to be 28%. Besides, the inhibition at 10 µM under setting [5] worked out at 94%.

On to `Cc1ccc2c(c1)sc1ncc(C(O)CCc3ccccc3)n12` (stereo not drawn) [Example 19, 7-Methyl-α-(2-phenylethyl)imidazo[2,1-b]benzothiazole-3-methanol], for which the inhibition at 3.3 µM under setting [4] is 59%. Also, under setting [5], the inhibition at 10 µM stood at 92%.

Turning to `OC(CCc1ccccc1)c1cnc2sc3cc(F)ccc3n12` (stereo not drawn) [Example 20, 7-Fluoro-α-(2-phenylethyl)imidazo[2,1-b]benzothiazole-3-methanol], under setting [4], the inhibition at 3.3 µM was 43%. Also, the inhibition at 10 µM under setting [5] was found to be 88%.

`COc1ccc2c(c1)sc1ncc(C(O)CCc3ccccc3)n12` (stereo not drawn) [Example 21, 7-Methoxy-α-(2-phenylethyl)imidazo[2,1-b]benzothiazole-3-methanol]: the inhibition at 3.3 µM under setting [4] is 80%. The inhibition at 10 µM under setting [5] was determined as 93%.

For the molecule `OC(/C=C/c1cccc(F)c1)c1cnc2sc3c(n12)CCCCC3` (stereo not drawn) [Example 22, α-[2-(3-Fluorophenyl)ethenyl]-6,7,8,9-tetrahydro-5H-imidazo[2,1-b]thiazole-3-methanol], under setting [6], the inhibition at 1.1 µM was 24%. Further, the inhibition at 3.3 µM under setting [7] amounted to 57%. In addition, the inhibition at 10 µM under setting [8] stood at 66%.

For the molecule `OC(CCc1cccc(F)c1)c1cnc2sc3c(n12)CCCCC3` (stereo not drawn) [Example 23, α-[2-(3-Fluorophenyl)ethyl]-6,7,8,9-tetrahydro-5H-cyclohept[d]imidazo[2,1-b]thiazol-3-methanol], under setting [9], the inhibition at 1.1 µM was 35%. Besides, the inhibition at 3.3 µM under setting [10] was found to be 64%.

`OC(CCc1ccc(F)cc1)c1cnc2sc3c(n12)CCCCC3` (stereo not drawn) [Example 24, α-[2-(4-Fluorophenyl)ethyl]-6,7,8,9-tetrahydro-5H-cyclohept[d]imidazo[2,1-b]thiazol-3-methanol]: the inhibition at 1.1 µM under setting [9] amounted to 53%. Further, the inhibition at 3.3 µM under setting [10] amounted to 77%.

As to `OC(/C=C/c1ccc(F)cc1)c1cnc2sc3c(n12)CCCCC3` (stereo not drawn) [Example 25, α-[2-(4-Fluorophenyl)ethenyl]-6,7,8,9-tetrahydro-5H-cyclohept[d]imidazo[2,1-b]thiazol-3-methanol], the inhibition at 1.1 µM under setting [6] is 23%. For the same molecule, the inhibition at 3.3 µM under setting [7] is 33%. Also, under setting [8], the inhibition at 10 µM was 21%.

Regarding `OC(CCc1cccc(Br)c1)c1cnc2sc3c(n12)CCCCC3` (stereo not drawn) [Example 26, α-[2-(3-Bromophenyl)ethyl]-6,7,8,9-tetrahydro-5H-cyclohept[d]imidazo-[2,1-b]thiazol-3-methanol], the inhibition at 1.1 µM under setting [9] was 4.8%. Moreover, the inhibition at 3.3 µM under setting [10] turned out to be 80%.

Consider `OC(CCc1cccc(Cl)c1)c1cnc2sc3c(n12)CCCCC3` (stereo not drawn) [Example 27, α-[2-(3-Chlorophenyl)ethyl]-6,7,8,9-tetrahydro-5H-cyclohept[d]imidazo[2,1-b]thiazol-3-methanol], for which the inhibition at 1.1 µM under setting [9] was 55%. Also, under setting [10], the inhibition at 3.3 µM was found to be 98%.

In the case of `OC(CCc1cc(F)cc(F)c1)c1cnc2sc3c(n12)CCCCC3` (stereo not drawn) [Example 28, α-[2-(3,5-Difluorophenyl)ethyl]-1-6,7,8,9-tetrahydro-5H-cyclohept[d]-imidazothiazol-3-methanol], the inhibition at 1.1 µM under setting [9] was 64%. For the same molecule, under setting [10], the inhibition at 3.3 µM stood at 88%.

For the molecule `CN(C)c1ccc(CCC(O)c2cnc3sc4c(n23)CCCCC4)cc1` (stereo not shown) [Example 29], the inhibition at 1.1 µM under setting [9] was determined as 24%. Further, the inhibition at 3.3 µM under setting [10] came out at 70%.

As for `CN(C)c1ccc(/C=C/C(O)c2cnc3sc4c(n23)CCCCC4)cc1` (stereo not drawn) [Example 30, α-[2-(4-Dimethylaminophenyl)ethenyl]-6,7,8,9-tetrahydro-5H-cyclohept[d]-imidazo[2,1-b]thiazol-3-methanol], the inhibition at 3.3 µM under setting [7] is below 10%. Moreover, the inhibition at 10 µM under setting [8] was found to be 24%.

In the case of `Cc1ccc(S(=O)(=O)Nc2cccc(CCC(O)c3cnc4sc(C)c(C)n34)c2)cc1` (stereo not shown) [Example 31], the inhibition at 1.1 µM under setting [11] was determined as 15%. The inhibition at 3.3 µM under setting [12] was 68%. Moreover, the inhibition at 10 µM under setting [13] came out at 98%.

In the case of `Cc1ccc(S(=O)(=O)Nc2cccc(/C=C/C(O)c3cnc4sc(C)c(C)n34)c2)cc1` (stereo not shown) [Example 32], the inhibition at 3.3 µM (3.3 μM (Table 9), read-out: PROTEASE INHIBITION) is below 10%. For the same molecule, where the note is “10 μM (Table 9), read-out: PROTEASE INHIBITION”, the inhibition at 10 µM is 15%.

For the molecule `Cc1ccc(S(=O)(=O)Nc2ccccc2CCC(O)c2cnc3sc(C)c(C)n23)cc1` (stereo not shown) [Example 33], the inhibition at 1.1 µM under setting [11] is below 10%. In addition, the inhibition at 3.3 µM under setting [12] amounted to 52%. Besides, under setting [13], the inhibition at 10 µM was found to be 97%.

Regarding `OC(CCc1cccc(F)c1F)c1cnc2sc3c(n12)CCCCC3` (stereo not drawn) [Example 34, α-[2-(2,3-Difluorophenyl)ethyl]-6,7,8,9-tetrahydro-5H-cyclohept[d]imidazothiazol-3-methanol], the inhibition at 1.1 µM under setting [9] was 58%. Under setting [10], the inhibition at 3.3 µM came out at 99%.

For `COc1ccc(CCC(O)c2cnc3sc4c(n23)CCCCC4)cc1` (stereo not drawn) [Example 35, α-[2-(4-methoxyphenyl)ethyl]-6,7,8,9-tetrahydro-5H-cyclohept-[d]imidazo[2,1-b]thiazol-3-methanol], the inhibition at 1.1 µM under setting [9] was 63%. Besides, under setting [10], the inhibition at 3.3 µM stood at 81%.

With `COc1ccc(/C=C/C(O)c2cnc3sc4c(n23)CCCCC4)cc1` (stereo not drawn) [Example 36, α-[2-(4-Methoxyphenyl)ethenyl]-6,7,8,9-tetrahydro-5H-cyclohept-[d]imidazo[2,1-b]thiazol-3-methanol], the inhibition at 1.1 µM under setting [6] was 15%. Moreover, the inhibition at 3.3 µM under setting [7] was 52%. For the same molecule, the inhibition at 10 µM under setting [8] was found to be 42%.

Turning to `OC(CCc1ccc2ccccc2c1)c1cnc2sc3c(n12)CCCCC3` (stereo not drawn) [Example 37, α-[2-(2-Naphthalenyl)ethyl]-6,7,8,9-tetrahydro-5H-cyclohept[d]imidazo[2,1-b]thiazol-3-methanol], under setting [9], the inhibition at 1.1 µM is 51%. The inhibition at 3.3 µM under setting [10] came out at 80%.
